From the NIST ThermoML archive (doi:10.1016/j.jct.2011.01.014)
± gives the expanded uncertainty stated by the source.

Assay: xn = mol fraction of the nth substance listed
Details: 101 kPa, Liquid; for speed of sound: sound velocity cell; for mass density: Vibrating tube method

## CC(=O)[O-].[NH3+]CCO [2-hydroxyethylammonium acetate] + O
305.65 K, x1 = 0.051
  speed of sound: 1689.8 ± 2.6 m/s
305.65 K, x1 = 0.1019
  speed of sound: 1763.6 ± 1.4 m/s
305.65 K, x1 = 0.1963
  speed of sound: 1817.3 ± 1.2 m/s
305.65 K, x1 = 0.2894
  speed of sound: 1823.5 ± 1.4 m/s
305.65 K, x1 = 0.3959
  speed of sound: 1811.5 ± 1.6 m/s
305.65 K, x1 = 0.5016
  speed of sound: 1799.8 ± 1.9 m/s
305.65 K, x1 = 0.5821
  speed of sound: 1797 ± 2 m/s
305.65 K, x1 = 0.6837
  speed of sound: 1788.2 ± 2.3 m/s
305.65 K, x1 = 0.7763
  speed of sound: 1786.6 ± 2.6 m/s
305.65 K, x1 = 0.8761
  speed of sound: 1776.6 ± 2.8 m/s
305.65 K, x1 = 0.9137
  speed of sound: 1778.1 ± 2.9 m/s
305.65 K, x1 = 1
  speed of sound: 1773.4 ± 3.2 m/s
308.15 K, x1 = 0.051
  mass density: 1047.04 ± 0.81 kg/m3
  speed of sound: 1690.8 ± 2.6 m/s
308.15 K, x1 = 0.1019
  mass density: 1076 ± 0.4 kg/m3
  speed of sound: 1762.3 ± 1.3 m/s
308.15 K, x1 = 0.1963
  mass density: 1106.1 ± 0.3 kg/m3
  speed of sound: 1814 ± 1.2 m/s
308.15 K, x1 = 0.2894
  mass density: 1120.43 ± 0.32 kg/m3
  speed of sound: 1819.3 ± 1.4 m/s
308.15 K, x1 = 0.3959
  mass density: 1129.69 ± 0.48 kg/m3
  speed of sound: 1806.9 ± 1.6 m/s
308.15 K, x1 = 0.5016
  mass density: 1134.77 ± 0.71 kg/m3
  speed of sound: 1795 ± 1.9 m/s
308.15 K, x1 = 0.5821
  mass density: 1137.3 ± 0.92 kg/m3
  speed of sound: 1792.1 ± 2 m/s
308.15 K, x1 = 0.6837
  mass density: 1139.14 ± 1.2 kg/m3
  speed of sound: 1783.2 ± 2.3 m/s
308.15 K, x1 = 0.7763
  mass density: 1140.95 ± 1.5 kg/m3
  speed of sound: 1781.4 ± 2.6 m/s
308.15 K, x1 = 0.8761
  mass density: 1142.23 ± 1.9 kg/m3
  speed of sound: 1771.3 ± 2.8 m/s
308.15 K, x1 = 0.9137
  mass density: 1142.59 ± 2.1 kg/m3
  speed of sound: 1772.8 ± 2.9 m/s
308.15 K, x1 = 1
  mass density: 1143.39 ± 2.5 kg/m3
  speed of sound: 1767.9 ± 3.2 m/s
310.65 K, x1 = 0.051
  mass density: 1045.86 ± 0.81 kg/m3
  speed of sound: 1691.5 ± 2.5 m/s
310.65 K, x1 = 0.1019
  mass density: 1074.78 ± 0.4 kg/m3
  speed of sound: 1760.8 ± 1.3 m/s
310.65 K, x1 = 0.1963
  mass density: 1104.76 ± 0.3 kg/m3
  speed of sound: 1810.6 ± 1.2 m/s
310.65 K, x1 = 0.2894
  mass density: 1119.06 ± 0.32 kg/m3
  speed of sound: 1815.2 ± 1.4 m/s
310.65 K, x1 = 0.3959
  mass density: 1128.3 ± 0.48 kg/m3
  speed of sound: 1802.4 ± 1.6 m/s
310.65 K, x1 = 0.5016
  mass density: 1133.38 ± 0.7 kg/m3
  speed of sound: 1790.2 ± 1.9 m/s
310.65 K, x1 = 0.5821
  mass density: 1135.91 ± 0.91 kg/m3
  speed of sound: 1787.2 ± 2 m/s
310.65 K, x1 = 0.6837
  mass density: 1137.76 ± 1.2 kg/m3
  speed of sound: 1778.2 ± 2.3 m/s
310.65 K, x1 = 0.7763
  mass density: 1139.58 ± 1.5 kg/m3
  speed of sound: 1776.3 ± 2.6 m/s
310.65 K, x1 = 0.8761
  mass density: 1140.87 ± 1.9 kg/m3
  speed of sound: 1766 ± 2.8 m/s
310.65 K, x1 = 0.9137
  mass density: 1141.2 ± 2.1 kg/m3
  speed of sound: 1767.5 ± 2.9 m/s
310.65 K, x1 = 1
  mass density: 1141.96 ± 2.5 kg/m3
  speed of sound: 1762.5 ± 3.2 m/s
313.15 K, x1 = 0.051
  mass density: 1044.65 ± 0.8 kg/m3
  speed of sound: 1692 ± 2.5 m/s
313.15 K, x1 = 0.1019
  mass density: 1073.54 ± 0.4 kg/m3
  speed of sound: 1759.2 ± 1.3 m/s
313.15 K, x1 = 0.1963
  mass density: 1103.42 ± 0.3 kg/m3
  speed of sound: 1807.1 ± 1.2 m/s
313.15 K, x1 = 0.2894
  mass density: 1117.69 ± 0.32 kg/m3
  speed of sound: 1811.1 ± 1.4 m/s
313.15 K, x1 = 0.3959
  mass density: 1126.9 ± 0.48 kg/m3
  speed of sound: 1797.7 ± 1.6 m/s
313.15 K, x1 = 0.5016
  mass density: 1131.98 ± 0.7 kg/m3
  speed of sound: 1785.3 ± 1.9 m/s
313.15 K, x1 = 0.5821
  mass density: 1134.53 ± 0.91 kg/m3
  speed of sound: 1782.3 ± 2 m/s
313.15 K, x1 = 0.6837
  mass density: 1136.37 ± 1.2 kg/m3
  speed of sound: 1773.2 ± 2.3 m/s
313.15 K, x1 = 0.7763
  mass density: 1138.21 ± 1.5 kg/m3
  speed of sound: 1771.3 ± 2.6 m/s
313.15 K, x1 = 0.8761
  mass density: 1139.5 ± 1.9 kg/m3
  speed of sound: 1760.8 ± 2.8 m/s
313.15 K, x1 = 0.9137
  mass density: 1139.84 ± 2.1 kg/m3
  speed of sound: 1762.3 ± 2.9 m/s
313.15 K, x1 = 1
  mass density: 1140.55 ± 2.5 kg/m3
  speed of sound: 1757.2 ± 3.2 m/s
315.15 K, x1 = 0.051
  mass density: 1043.45 ± 0.8 kg/m3
315.15 K, x1 = 0.1019
  mass density: 1072.29 ± 0.4 kg/m3
315.15 K, x1 = 0.1963
  mass density: 1102.07 ± 0.29 kg/m3
315.15 K, x1 = 0.2894
  mass density: 1116.31 ± 0.32 kg/m3
315.15 K, x1 = 0.3959
  mass density: 1125.5 ± 0.48 kg/m3
315.15 K, x1 = 0.5016
  mass density: 1130.58 ± 0.7 kg/m3
315.15 K, x1 = 0.5821
  mass density: 1133.13 ± 0.91 kg/m3
315.15 K, x1 = 0.6837
  mass density: 1134.98 ± 1.2 kg/m3
315.15 K, x1 = 0.7763
  mass density: 1136.83 ± 1.5 kg/m3
315.15 K, x1 = 0.8761
  mass density: 1138.14 ± 1.9 kg/m3
315.15 K, x1 = 0.9137
  mass density: 1138.48 ± 2.1 kg/m3
315.15 K, x1 = 1
  mass density: 1139.18 ± 2.5 kg/m3
315.65 K, x1 = 0.051
  speed of sound: 1692.3 ± 2.4 m/s
315.65 K, x1 = 0.1019
  speed of sound: 1757.5 ± 1.3 m/s
315.65 K, x1 = 0.1963
  speed of sound: 1803.5 ± 1.2 m/s
315.65 K, x1 = 0.2894
  speed of sound: 1806.9 ± 1.4 m/s
315.65 K, x1 = 0.3959
  speed of sound: 1793.1 ± 1.6 m/s
315.65 K, x1 = 0.5016
  speed of sound: 1780.5 ± 1.9 m/s
315.65 K, x1 = 0.5821
  speed of sound: 1777.4 ± 2 m/s
315.65 K, x1 = 0.6837
  speed of sound: 1768.2 ± 2.3 m/s
315.65 K, x1 = 0.7763
  speed of sound: 1766.2 ± 2.6 m/s
315.65 K, x1 = 0.8761
  speed of sound: 1755.7 ± 2.8 m/s
315.65 K, x1 = 0.9137
  speed of sound: 1757.1 ± 2.9 m/s
315.65 K, x1 = 1
  speed of sound: 1751.9 ± 3.2 m/s
318.15 K, x1 = 0.051
  mass density: 1042.25 ± 0.8 kg/m3
  speed of sound: 1692.3 ± 2.4 m/s
318.15 K, x1 = 0.1019
  mass density: 1071.02 ± 0.4 kg/m3
  speed of sound: 1755.5 ± 1.3 m/s
318.15 K, x1 = 0.1963
  mass density: 1100.71 ± 0.29 kg/m3
  speed of sound: 1799.9 ± 1.2 m/s
318.15 K, x1 = 0.2894
  mass density: 1114.92 ± 0.32 kg/m3
  speed of sound: 1802.6 ± 1.4 m/s
318.15 K, x1 = 0.3959
  mass density: 1124.1 ± 0.48 kg/m3
  speed of sound: 1788.4 ± 1.6 m/s
318.15 K, x1 = 0.5016
  mass density: 1129.18 ± 0.7 kg/m3
  speed of sound: 1775.6 ± 1.9 m/s
318.15 K, x1 = 0.5821
  mass density: 1131.74 ± 0.91 kg/m3
  speed of sound: 1772.5 ± 2 m/s
318.15 K, x1 = 0.6837
  mass density: 1133.59 ± 1.2 kg/m3
  speed of sound: 1763.2 ± 2.3 m/s
318.15 K, x1 = 0.7763
  mass density: 1135.45 ± 1.5 kg/m3
  speed of sound: 1761.2 ± 2.6 m/s
318.15 K, x1 = 0.8761
  mass density: 1136.76 ± 1.9 kg/m3
  speed of sound: 1750.5 ± 2.8 m/s
318.15 K, x1 = 0.9137
  mass density: 1137.11 ± 2.1 kg/m3
  speed of sound: 1751.9 ± 2.9 m/s
318.15 K, x1 = 1
  mass density: 1137.82 ± 2.5 kg/m3
  speed of sound: 1746.5 ± 3.2 m/s
320.65 K, x1 = 0.051
  mass density: 1041.08 ± 0.8 kg/m3
  speed of sound: 1692.2 ± 2.3 m/s
320.65 K, x1 = 0.1019
  mass density: 1069.74 ± 0.4 kg/m3
  speed of sound: 1753.5 ± 1.3 m/s
320.65 K, x1 = 0.1963
  mass density: 1099.34 ± 0.29 kg/m3
  speed of sound: 1796.1 ± 1.2 m/s
320.65 K, x1 = 0.2894
  mass density: 1113.53 ± 0.31 kg/m3
  speed of sound: 1798.2 ± 1.4 m/s
320.65 K, x1 = 0.3959
  mass density: 1122.69 ± 0.47 kg/m3
  speed of sound: 1783.6 ± 1.6 m/s
320.65 K, x1 = 0.5016
  mass density: 1127.77 ± 0.7 kg/m3
  speed of sound: 1770.7 ± 1.9 m/s
320.65 K, x1 = 0.5821
  mass density: 1130.35 ± 0.9 kg/m3
  speed of sound: 1767.6 ± 2 m/s
320.65 K, x1 = 0.6837
  mass density: 1132.19 ± 1.2 kg/m3
  speed of sound: 1758.2 ± 2.3 m/s
320.65 K, x1 = 0.7763
  mass density: 1134.06 ± 1.5 kg/m3
  speed of sound: 1756.1 ± 2.6 m/s
320.65 K, x1 = 0.8761
  mass density: 1135.38 ± 1.9 kg/m3
  speed of sound: 1745.3 ± 2.8 m/s
320.65 K, x1 = 0.9137
  mass density: 1135.73 ± 2.1 kg/m3
  speed of sound: 1746.7 ± 2.9 m/s
320.65 K, x1 = 1
  mass density: 1136.45 ± 2.5 kg/m3
  speed of sound: 1741.3 ± 3.2 m/s
323.15 K, x1 = 0.051
  mass density: 1040.15 ± 0.81 kg/m3
  speed of sound: 1691.8 ± 2.4 m/s
323.15 K, x1 = 0.1019
  mass density: 1068.47 ± 0.41 kg/m3
  speed of sound: 1751.2 ± 1.3 m/s
323.15 K, x1 = 0.1963
  mass density: 1097.97 ± 0.31 kg/m3
  speed of sound: 1792.3 ± 1.2 m/s
323.15 K, x1 = 0.2894
  mass density: 1112.14 ± 0.32 kg/m3
  speed of sound: 1793.9 ± 1.4 m/s
323.15 K, x1 = 0.3959
  mass density: 1121.29 ± 0.47 kg/m3
  speed of sound: 1778.9 ± 1.6 m/s
323.15 K, x1 = 0.5016
  mass density: 1126.36 ± 0.69 kg/m3
  speed of sound: 1765.9 ± 1.9 m/s
323.15 K, x1 = 0.5821
  mass density: 1128.95 ± 0.9 kg/m3
  speed of sound: 1762.8 ± 2 m/s
323.15 K, x1 = 0.6837
  mass density: 1130.79 ± 1.2 kg/m3
  speed of sound: 1753.3 ± 2.3 m/s
323.15 K, x1 = 0.7763
  mass density: 1132.67 ± 1.5 kg/m3
  speed of sound: 1751 ± 2.6 m/s
323.15 K, x1 = 0.8761
  mass density: 1134 ± 1.9 kg/m3
  speed of sound: 1740.2 ± 2.8 m/s
323.15 K, x1 = 0.9137
  mass density: 1134.36 ± 2.1 kg/m3
  speed of sound: 1741.5 ± 2.9 m/s
323.15 K, x1 = 1
  mass density: 1135.08 ± 2.5 kg/m3
  speed of sound: 1736 ± 3.2 m/s
